Series [1] can be described thus: PPB assay by ultrafiltration, human plasma. It counts as in vitro ADME, humans. As to the method: The PPB of ammoxetine was determined using the ultrafiltration method. Triplicate samples of rat, dog, or human plasma were spiked with ammoxetine at three final concentrations (50, 150, and 450 ng/mL). The spiked plasma samples were then incubated in a 37°C air-bath shaker for 1 h until equilibrium was reached. After incubation, 400 μL of the plasma samples were transferred to pre-saturated ultrafiltration devices. These devices were subsequently centrifuged at 13,800×g and 20°C for 20 min to separate the unbound ammoxetine. 100 μL of the test samples were taken and mixed with 100 μL of the IS, L-phencynonate (50 ng/mL), and 300 μL of methanol. Following centrifugation at 13,800×g for 10 min, the supernatants were used to determine the total and free concentrations of ammoxetine in the plasma (C t , C f ) using an LC-MS-MS method. The PPB rate (%) of ammoxetine was calculated by dividing (C t −C f ) by C t .

The next series has as its target CYP 3A4 (Homo sapiens, UniProt P08684). In words: Phenotyping with recombinant human CYP 3A4. Conditions: 5 μmol/L, 25 pmol/mL CYP, 1 h. It counts as in vitro ADME. Details: purchased BD (Woburn, USA). As to the method: Ammoxetine (final concentration 5 μmol/L) was incubated with recombinant human CYP 3A4, CYP 1A2, CYP 2C9, CYP 2C19, and CYP 2D6 (final concentration 25 pmol/mL) in a 5 mmol/L K2HPO4 buffer at pH 7.4. The incubations were performed in quintuplicate. NADPH (final concentration 1 mmol/L) was added to initiate the incubation process. The mixture was then incubated at 37°C for 1 h. To stop the reaction, 200 μL of ice-cold acetonitrile/methanol (1:1, v/v) containing 500 ng/mL of L-phencynonate (IS) was added. The samples were vortexed for 2 min and centrifuged at 13,800×g and 4°C for 10 min. The supernatants obtained were analyzed using an LC-MS-MS method. To establish appropriate controls, zero-time controls and blank controls in the absence of NADPH were set up in parallel.

Series [2] can be described thus: Hepatic microsome stability assay, DLM. Format: in vitro ADME, dog. The following applies: beagle, dog, liver microsomes, pH 7.4; 1 μmol/L, 0.2 g/L microsomes, NADPH. Here is the method: (§1) A hepatic microsome stability assay was conducted to investigate the metabolic disposition of ammoxetine. In this assay, 100 μL of ammoxetine (2.5 μmol/L) was incubated at 37°C with 100 μL of liver microsomes (RLM, DLM, MLM, or HLM) formulated in a 5 mmol/L dipotassium hydrogen phosphate (K2HPO4) buffer at pH 7.4. The concentration of microsomes was 0.5 g/L. To initiate the incubations, 50 μL of NADPH solution preincubated at 37°C was added. […] Parallel triplicate samples were prepared for each time point, including 0, 2, 5, 10, 15, 30, 60, 90, and 120 min. To stop the reactions at each time point, 250 μL of ice-cold precipitating agent (acetonitrile/methanol, 1:1, v/v) containing 500 ng/mL of L-phencynonate (IS) was added to the incubation mixture. The samples were vortexed for 2 min at 4°C and then centrifuged at 13,800×g for 10 min. The supernatants were analyzed using an LC-MS-MS approach. […]
(§2) In Formula 3, t1/2 (min) represents the half-life of ammoxetine in liver microsomes. It is calculated by dividing −0.693 by the resulting slope (k e) obtained from a natural logarithm plot of the remaining concentration of ammoxetine against incubation time. […]
(Liver microsomes are a subcellular fraction often used to study metabolism.)

A further series relates to DLM. The series is described as follows: Hepatic microsome stability assay, DLM. It counts as in vitro ADME, dog. The following applies: predicted hepatic clearance. Here is the method:
as §1, §2

Each structure is given as a SMILES string. Where “and” joins values, the source holds several entries; their conditions need not be identical. Identical values can stand only once.

CYP 3A4, sequence (P08684 whole entry): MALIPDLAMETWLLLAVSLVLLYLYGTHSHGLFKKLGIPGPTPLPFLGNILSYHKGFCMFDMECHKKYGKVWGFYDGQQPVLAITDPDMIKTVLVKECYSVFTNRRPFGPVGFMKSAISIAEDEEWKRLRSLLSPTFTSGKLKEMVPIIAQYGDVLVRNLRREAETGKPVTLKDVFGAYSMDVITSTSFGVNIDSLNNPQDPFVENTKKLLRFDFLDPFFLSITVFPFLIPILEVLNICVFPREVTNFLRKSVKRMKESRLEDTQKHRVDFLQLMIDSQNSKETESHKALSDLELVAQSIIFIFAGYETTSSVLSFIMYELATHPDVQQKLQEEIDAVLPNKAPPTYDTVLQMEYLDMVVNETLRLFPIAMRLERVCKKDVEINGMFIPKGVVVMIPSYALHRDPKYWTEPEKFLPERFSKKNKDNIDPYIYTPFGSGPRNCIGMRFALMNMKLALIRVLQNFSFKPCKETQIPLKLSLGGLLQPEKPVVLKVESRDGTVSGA

As to `CNCC[C@H](Oc1cccc2c1OCO2)c1cccs1` [ammoxetine], the fraction unbound at 1 h, 50 ng/mL in series [1] (50 ng/mL, read-out: Percentage of ammoxetine-protein binding rate (%) (converted)) was 0.415. The fraction unbound at 1 h, 150 ng/mL in series [1] (150 ng/mL, read-out: Percentage of ammoxetine-protein binding rate (%) (converted)) is 0.503. For the same compound, the fraction unbound at 1 h, 450 ng/mL in series [1] (450 ng/mL, read-out: Percentage of ammoxetine-protein binding rate (%) (converted)) was 0.45. The fraction unbound at 1 h in series [1] (approximate range over 50-450 ng/mL, read-out: PPB rate) fell in the range of 0.4 to 0.5. In addition, on CYP 3A4, the Transformation ratio% was 24.49±3.65% and 24.49%; the “residuary concentration of ammoxetine, Mean±SD” value is listed as 5.18±0.25. In series [2], the half-life at 1 μmol/L came to 2.31 ± 0.0493 h. Moreover, the CL h in the series with DLM was 16.64 ± 0.17 mL/min/kg.

Broadly, the half-life is the time in which the quantity being followed falls by half.
